Test results reported in PubChem BioAssay AID192 (DTP/NCI, 2004).
“And” between values parts separate entries of the source, which are not always exact repeats. Equal entries are not always repeated. Toxic doses and inconclusive results are not listed. The calls were made as follows: active = survival T/C of 150% or more; inactive = T/C below 125% in these data.

Test system: BDF1 mice, B16 melanoma ip, median survival T/C
Assay: NCI In Vivo Anticancer Drug Screen. Data for tumor model B16 Melanoma (intraperitoneal) in B6D2F1 (BDF1) mice
Conditions: endpoint: median survival time, higher = longer survival
In short: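 In this screen, activity was judged from survival or tumor size in treated versus vehicle-treated tumor-bearing mice, reported as T/C.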

[1] = dose: 0.06 mg/kg/injection, schedule: Q01DX009 (ip), vehicle: saline
[2] = dose: 0.25 mg/kg/injection, schedule: Q01DX009 (ip), vehicle: saline
[3] = dose: 0.5 mg/kg/injection, schedule: Q01DX009 (ip), vehicle: saline
[4] = dose: 2.0 mg/kg/injection, schedule: Q01DX009 (ip), vehicle: saline
[5] = dose: 8.0 mg/kg/injection, schedule: Q01DX009 (ip), vehicle: saline
[6] = dose: 25.0 mg/kg/injection, schedule: Q01DX009 (ip), vehicle: Klucel (hydroxypropylcellulose) (HPC)
[7] = dose: 100.0 mg/kg/injection, schedule: Q01DX009 (ip), vehicle: Klucel (hydroxypropylcellulose) (HPC)
[8] = dose: 200.0 mg/kg/injection, schedule: Q01DX009 (ip), vehicle: Klucel (hydroxypropylcellulose) (HPC)
[9] = dose: 400.0 mg/kg/injection, schedule: Q01DX009 (ip), vehicle: Klucel (hydroxypropylcellulose) (HPC)
[10] = dose: 50.0 mg/kg/injection, schedule: Q01DX009 (ip), vehicle: Klucel (hydroxypropylcellulose) (HPC)
[11] = dose: 100.0 mg/kg/injection, schedule: Q01DX009 (ip), vehicle: saline with Tween-80
[12] = dose: 200.0 mg/kg/injection, schedule: Q01DX009 (ip), vehicle: saline with Tween-80
[13] = dose: 50.0 mg/kg/injection, schedule: Q01DX009 (ip), vehicle: saline with Tween-80
[14] = dose: 1.56 mg/kg/injection, schedule: Q01DX009 (ip), vehicle: saline
[15] = dose: 3.13 mg/kg/injection, schedule: Q01DX009 (ip), vehicle: saline
[16] = dose: 6.25 mg/kg/injection, schedule: Q01DX009 (ip), vehicle: saline

Measured: T/C

CC(C)C[CH2][Pb]([Cl])([CH2]CC(C)C)[CH2]CC(C)C
inactive: [1] 95 % of control | dose: 0.12 mg/kg/injection, schedule: Q01DX009 (ip), vehicle: Klucel (hydroxypropylcellulose) (HPC) 100 % of control | dose: 0.12 mg/kg/injection, schedule: Q01DX009 (ip), vehicle: saline 104 % of control | [2] 96 % of control | dose: 0.5 mg/kg/injection, schedule: Q01DX009 (ip), vehicle: Klucel (hydroxypropylcellulose) (HPC) 93 % of control | [3] 100 % of control | dose: 1.0 mg/kg/injection, schedule: Q01DX009 (ip), vehicle: Klucel (hydroxypropylcellulose) (HPC) 89 % of control | dose: 1.0 mg/kg/injection, schedule: Q01DX009 (ip), vehicle: saline 104 % of control | [4] 101 % of control | dose: 4.0 mg/kg/injection, schedule: Q01DX009 (ip), vehicle: saline 98 % of control | [5] 94 % of control

O=C(CCl)c1ccc(O)c(O)c1
inactive: dose: 12.5 mg/kg/injection, schedule: Q01DX009 (ip), vehicle: Klucel (hydroxypropylcellulose) (HPC) 94 % of control | [6] 87 % of control

CC(O)C1(O)C(O)CC(OC2c3cc4c(c(O)c3[C@@H]3C[C@@]2(C)OC32C=c3cc[nH]c3=N2)C(=O)c2cccc(O)c2C4=O)OC1C (stereo not given in full)
inactive: dose: 0.5 mg/kg/injection, schedule: Q01DX009 (ip), vehicle: saline with Tween-80 97 % of control | dose: 1.0 mg/kg/injection, schedule: Q01DX009 (ip), vehicle: saline with Tween-80 112 % of control | dose: 2.0 mg/kg/injection, schedule: Q01DX009 (ip), vehicle: saline with Tween-80 109 % of control | dose: 4.0 mg/kg/injection, schedule: Q01DX009 (ip), vehicle: saline with Tween-80 117 % of control | dose: 8.0 mg/kg/injection, schedule: Q01DX009 (ip), vehicle: saline with Tween-80 115 % of control | dose: 16.0 mg/kg/injection, schedule: Q01DX009 (ip), vehicle: saline with Tween-80 124 % of control

O=c1c2ccccc2sc2ccc(Br)cc12
inactive: [7] 110 % of control | [8] 100 % of control | [9] 102 % of control

NCCc1c[nH]c2ccccc12
inactive: dose: 100.0 mg/kg/injection, schedule: Q04DX003 (ip), vehicle: saline 120 % of control | dose: 200.0 mg/kg/injection, schedule: Q04DX003 (ip), vehicle: saline 112 % of control

Cc1cccc(NC(=O)Nc2ccccc2Cl)c1C
inactive: [6] 101 % of control | [10] 101 % of control | [7] 101 % of control

O=C(O)CC(NC(=O)OCc1ccccc1)C(=O)OCc1ccccc1 (stereo not given)
inactive: [10] 118 % of control | [7] 89 % of control | [8] 92 % of control

O=c1[nH]c(-c2ccccc2)c(-c2ccccc2)[nH]1
inactive: [11] 90 % of control | [12] 95 % of control

Cc1cccc(C)c1NC(=O)c1ccccc1
inactive: dose: 12.5 mg/kg/injection, schedule: Q01DX009 (ip), vehicle: saline 93 % of control | [6] 89 % of control | [10] 100 % of control | dose: 50.0 mg/kg/injection, schedule: Q01DX009 (ip), vehicle: saline 90 % of control

Cc1ccc(NC(=O)COc2ccc(Cl)cc2)c(C)c1
inactive: dose: 3.13 mg/kg/injection, schedule: Q01DX009 (ip), vehicle: saline with Tween-80 119 % of control | dose: 6.25 mg/kg/injection, schedule: Q01DX009 (ip), vehicle: saline with Tween-80 107 % of control | dose: 12.5 mg/kg/injection, schedule: Q01DX009 (ip), vehicle: saline with Tween-80 97 % of control | dose: 25.0 mg/kg/injection, schedule: Q01DX009 (ip), vehicle: saline with Tween-80 95 % of control | [13] 91 % of control

COc1cc2[nH]c(C)c(CCN3CCN(c4ccccc4)CC3)c2cc1OC
inactive: dose: 0.04 mg/kg/injection, schedule: Q01DX009 (ip), vehicle: Klucel (hydroxypropylcellulose) (HPC) 107 % of control | dose: 0.09 mg/kg/injection, schedule: Q01DX009 (ip), vehicle: Klucel (hydroxypropylcellulose) (HPC) 92 % of control | dose: 0.19 mg/kg/injection, schedule: Q01DX009 (ip), vehicle: Klucel (hydroxypropylcellulose) (HPC) 93 % of control | dose: 0.39 mg/kg/injection, schedule: Q01DX009 (ip), vehicle: Klucel (hydroxypropylcellulose) (HPC) 106 % of control | dose: 0.78 mg/kg/injection, schedule: Q01DX009 (ip), vehicle: Klucel (hydroxypropylcellulose) (HPC) 102 % of control

Cc1ccc(C(=O)CCC(=O)O)c(C)c1
inactive: [11] 90 % of control | [12] 93 % of control

O=S(=O)(c1ccc(NC(=S)N/N=C/c2ccccc2O)cc1)N1CCCCC1
inactive: dose: 25.0 mg/kg/injection, schedule: Q01DX009 (ip), vehicle: olive oil, sesame oil, peanut oil 87 % of control | dose: 50.0 mg/kg/injection, schedule: Q01DX009 (ip), vehicle: olive oil, sesame oil, peanut oil 87 % of control

CN(C)CCCN1c2ccccc2Sc2ccc(C(F)(F)F)cc21
inactive: [1] 89 % of control | [2] 97 % of control | [3] 109 % of control | [4] 104 % of control | [5] 109 % of control

CCN(CC)c1nc(Cl)nc(NC(C)C)n1
inactive: [13] 95 % of control | [11] 97 % of control | [12] 89 % of control

C=COCC(C)C (tested in a mixture with another compound)
inactive: dose: 0.39 mg/kg/injection, schedule: Q01DX009 (ip), vehicle: saline 108 % of control | dose: 0.78 mg/kg/injection, schedule: Q01DX009 (ip), vehicle: saline 100 % of control | dose: 1.56 mg/kg/injection, schedule: Q01DX009 (ip), vehicle: saline with Tween-80 88 % of control | [14] 88 % of control and 94 % of control | [15] 89 % of control | [16] 86 % of control

CC[CH2][Pb]([CH2]CC)([CH2]CC)[O]C(=O)c1ccccc1
inactive: dose: 1.56 mg/kg/injection, schedule: Q01DX009 (ip), vehicle: Klucel (hydroxypropylcellulose) (HPC) 103 % of control | dose: 3.13 mg/kg/injection, schedule: Q01DX009 (ip), vehicle: Klucel (hydroxypropylcellulose) (HPC) 96 % of control

CCOC(C[Se][Se]CC(OCC)OCC)OCC
inactive: [14] 99 % of control | [15] 104 % of control | [16] 95 % of control

Cc1c(C(=O)O)cc2n(c1=O)Cc1cc3ccccc3nc1-2
inactive: dose: 25.0 mg/kg/injection, schedule: Q04DX003 (ip), vehicle: Klucel (hydroxypropylcellulose) (HPC) 102 % of control | dose: 50.0 mg/kg/injection, schedule: Q04DX003 (ip), vehicle: Klucel (hydroxypropylcellulose) (HPC) 94 % of control | dose: 100.0 mg/kg/injection, schedule: Q04DX003 (ip), vehicle: Klucel (hydroxypropylcellulose) (HPC) 89 % of control | dose: 100.0 mg/kg/injection, schedule: Q04DX003 (ip), vehicle: saline with Tween-80 100 % of control

COc1cc2cc(c1Cl)N(C)C(=O)/C=C/C1(C)OC1C(C)C1CC(O)(NC(=O)O1)C(OC)C=C/C=C(\C)C2 (stereo not given)
inactive: dose: 1.3 micrograms/kg/injection, schedule: Q01DX009 (ip), vehicle: saline + alcohol 100 % of control | dose: 2.5 micrograms/kg/injection, schedule: Q01DX009 (ip), vehicle: saline + alcohol 97 % of control | dose: 5.0 micrograms/kg/injection, schedule: Q01DX009 (ip), vehicle: saline + alcohol 97 % of control | dose: 10.0 micrograms/kg/injection, schedule: Q01DX009 (ip), vehicle: saline + alcohol 92 % of control

CCOc1ccc(/C=N/NS(=O)(=O)c2ccc(C)cc2)cc1
inactive: [7] 96 % of control | [8] 90 % of control | [9] 90 % of control
